From patent US11696903B2, “Compounds and methods for scavenging dicarbonyl electrophiles” (VANDERBILT UNIVERSITY, priority 2019, dated 2023)

What was measured:
[1] = test system: Mongolian gerbils infected with Hp 7.13; assay: Gastric cancer development in Mongolian gerbils infected with Hp 7.13; format: in vivo; conditions: gerbils infected with Hp 7.13, EtSA 0.75% in water
Protocol: As discussed further in the Examples, the human gastric epithelial cell line AGS was infected with Hp PMSS1±10 mM EtSA. FVB/N insulin-gastrin (INS-GAS) mice and Mongolian gerbils were infected for 8 wk with Hp PMSS1 and 7.13, respectively; EtSA (0.75% in water) was given to animals beginning one wk post-infection. Lys-LG adducts, a marker of electrophile reactions, and EtSA were quantified by LC/EST/MS/MS. Histology was analyzed on H&E staining. DNA damage was evaluated by pH2AX staining. Hp colonization was quantified by culture. Mucosal immune responses were determined by RNA profiling and by Luminex assay. Mice were imaged using PET/CT with ^18F-FDG (inflammation marker) and ^18F—NaF (tumor marker).

[2] = test system: DNA-histone interaction (histone H4) in A549 cells; assay: Salt fractionation of A549 nuclei, histone H4 solubility; format: cell-based, human; conditions: A549, 500 μM EtSA 45 min prior to 20 μM AA
Protocol: FIG. 14. LG-lysyl adduct formation on histone H4 decreases DNA-histone interaction. A549 cells were stimulated and given DMSO vehicle (C lanes) or 20 μM AA for 1 h (A lanes). A subgroup of cells was treated with 500 μM EtSA 45 min prior to adding AA (E lanes). Nuclei were extracted with 0.6, 0.9, or 1.2 M NaCl buffer, and the supernatant evaluated by Western blotting for histone H4. Shown is a representative Western blot (A) as well as the pooled results of 4 experiments (B). Different exposure times may have been used for the 0.9 M and 1.2 M bands. ***, p<0.001 by one-way ANOVA followed by Tukey's multiple comparisons post-test. NS, not significant.
60-80% confluent A549 cells were stimulated and treated with AA±500 μM EtSA before scraping cells in lysis media for nuclear isolation as above. After addition of Tritox X-100 and vortexing, 1.5 mL of each sample was aliquoted into an eppendorf and centrifuged to separate nuclei. Pellets were washed with PBS and all buffer removed. Nuclear pellets were resuspended in extraction buffer containing 0.6M, 0.9M, 1.2M or 1.5M NaCl (with 10 mM Tris, pH 7.5, 3 mM MgCl2, 0.5% NP-40, and protease inhibitor cocktail) and incubated 10 min on ice. […] This was sonicated, denatured at 95° C., and analyzed by SDS-PAGE and Western blotting, using Ponceau stain to visualize proteins and confirm equal loading, and anti-H4 antibody (Abeam, Cambridge, Mass.). […]

[3] = test system: LG-histone adducts in RAW264.7 cells; assay: LG-lysyl adduct formation on histones in RAW264.7 cells (LC/ESI/MS/MS); format: cell-based, mouse
Protocol: FIGS. 11A, 11B, 11C, 11D, 11E, and 11F are a series of graphs showing that LG-lysine adducts of histones are found in cells and tissue, dependent on COX-2 activity. RAW264.7 mouse macrophage (A) and A549 human lung carcinoma (C) cells were stimulated to express COX-2, then given 20 μM arachidonic acid (AA) or vehicle. A subgroup of cells was preincubated 45 min with 50 μM indomethacin. As a measure of COX activity, PGE2 was determined by GC/MS from cell media prior to lysis (B and D). Nuclei were isolated, and histones were extracted and digested to individual amino acids prior to LC/EST/MS/MS analysis. *, p<0.05; ***, p<0.001 by ANOVA followed by Tukey's post-test (n≥5). (E). Histones were extracted from nuclei of rat liver, and analyzed as above for LG-lactam adduct. COX-2 protein was analyzed by Western blotting and plotted against lactam adduct levels. Each point corresponds to 1 liver, and shown is the line of regression (r^2=0.7237). Pearson r=0.8507; two-tailed p=0.0152. (F) LC-MS chromatograph of histones isolated from a rat liver with relatively high COX-2 expression (COX-2 band intensity of 117 arbitrary units).
(A). Scavengers were screened in RAW264.7 cells for the ability to decrease LG adduct formation on histones. Scavengers used were glucosamine (GA), 3-methoxysalicylamine (3-MoSA), pentylpyridoxamine (PPM), and 5-ethylsalicylamine (EtSA). Cells were stimulated to express COX-2, pretreated 45 min. with 500 μM scavenger or vehicle (H2O), and given 20 μM AA for 1 h before lysing and extracting histones. Histone proteins were analyzed by LC/ESI/MS/MS for LG-lysyl lactam adduct, n=2. (B) Stimulated A549 cells were pretreated with 30, 300, or 1000 μM EtSA prior to 1 h with 20 μM AA, and histones analyzed for LG-lysyl adduct. *, p<0.05 by one-way ANOVA followed by Dunnett's multiple comparisons post-test (n=3-5). (C). A549 cells were stimulated, pretreated 45 min. with 1000 μM EtSA or H2O vehicle, and given 20 μM AA for 1 h. Media was analyzed by GC/MS for PGE2 (n=3). There was no effect on PGE2 production at lower doses of EtSA (data not shown).
To stimulate COX-2 expression, A549 or RAW264.7 cells were treated overnight with 5 ng/mL IL-1B (A549) or 10 μg/mL LPS and 10 U/mL IFNγ (RAW264.7) in serum-free medium. When indicated, cells were pretreated with indomethacin, aldehyde scavengers (glucosamine, 3-MoSA, PPM or EtSA), or vehicle (ethanol for indomethacin, H2O for scavengers) for 45 min, and then given 20 μM arachidonic acid (AA) or DMSO vehicle for 1 h before lysing.
Cultured cells were lysed in hypotonic buffer (10 mM Tris/10 mM NaCl/3 mM MgCl2) containing 1 mM pyridoxamine and 100 μM indomethacin to prevent the artifactual formation of LGE2 during the lytic process. […] Protein concentration was determined using the method of Bradford. […]

## CCc1ccc(O)c(CN)c1 [EtHOBA, 5-ethyl-2-hydroxybenzylamine]
[1]
  frequency of gastric cancer development: reduced
[2]
  elution of histone H4 at lower salt concentrations after AA: reversed
[3]; in comparison with salicylamine, pyridoxamine and their other analogues
  potency in protecting histones from modification by levuglandins: most potent
[3]; stimulated RAW264.7, 500 μM scavenger 45 min, 20 μM AA 1 h
  LG adduct formation on histones: most effectively blocked
